Reference: the supplement of paper PMC10307832

Tests used:
Assay in all cases: relative viability (nuclei count vs DMSO), 5 days (fraction); higher = more cells survive
LOU-NH91 = system: LOU-NH91
Summary of the method: (§1)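 Dosing by pin tool came one day after lung cancer cell lines were seeded in 1536-well plates, using either one drug or a fixed anchor-drug dose plus five library-drug doses (not always all listed) in √10 steps. After 5 days, nuclei were counted on 4× images. Relative viability is treated-well nuclei count divided by vehicle-well nuclei count, and values are medians of duplicate plates.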

NCI-H2087 = system: NCI-H2087
Summary of the method: as §1

HCC-366 = system: HCC-366
Summary of the method: as §1

SK-LU-1 = system: SK-LU-1
Summary of the method: as §1

HCC-827 = system: HCC-827
Summary of the method: as §1

NCI-H1993 = system: NCI-H1993
Summary of the method: as §1

NCI-H1437 = system: NCI-H1437
Summary of the method: as §1

HARA = system: HARA
Summary of the method: as §1

NCI-H1734 = system: NCI-H1734
Summary of the method: as §1

EKVX = system: EKVX
Summary of the method: as §1

BEN = system: BEN
Summary of the method: as §1

NCI-H647 = system: NCI-H647
Summary of the method: as §1

NCI-H661 = system: NCI-H661
Summary of the method: as §1

SK-MES-1 = system: SK-MES-1
Summary of the method: as §1

NCI-H522 = system: NCI-H522
Summary of the method: as §1

NCI-H2170 = system: NCI-H2170
Summary of the method: as §1

NCI-H1355 = system: NCI-H1355
Summary of the method: as §1

NCI-H1395 = system: NCI-H1395
Summary of the method: as §1

NCI-H2342 = system: NCI-H2342
Summary of the method: as §1

NCI-H1792 = system: NCI-H1792
Summary of the method: as §1

NCI-H2405 = system: NCI-H2405
Summary of the method: as §1

NCI-H2009 = system: NCI-H2009
Summary of the method: as §1

COc1cc2nccc(Oc3ccc(NC(=O)Nc4cc(C)on4)c(Cl)c3)c2cc1OC [Tivozanib] + Cc1nc(Nc2ncc(C(=O)Nc3c(C)cccc3Cl)s2)cc(N2CCN(CCO)CC2)n1 [Dasatinib] (partner 0.075 µM)
relative viability (LOU-NH91; first compound 0.005 µM): 0.514
relative viability (LOU-NH91; first compound 0.01581 µM): 0.569
relative viability (LOU-NH91; first compound 0.05 µM): 0.595
relative viability (LOU-NH91; first compound 0.1581 µM): 0.518
relative viability (LOU-NH91; first compound 0.5 µM): 0.525
relative viability (NCI-H2087; first compound 0.005 µM): 0.6
relative viability (NCI-H2087; first compound 0.01581 µM): 0.742
relative viability (NCI-H2087; first compound 0.05 µM): 0.794
relative viability (NCI-H2087; first compound 0.1581 µM): 0.911
relative viability (NCI-H2087; first compound 0.5 µM): 0.772
relative viability (HCC-366; first compound 0.005 µM): 0.582
relative viability (HCC-366; first compound 0.01581 µM): 0.601
relative viability (HCC-366; first compound 0.05 µM): 0.671
relative viability (HCC-366; first compound 0.1581 µM): 0.727
relative viability (HCC-366; first compound 0.5 µM): 0.587
relative viability (SK-LU-1; first compound 0.005 µM): 0.165
relative viability (SK-LU-1; first compound 0.01581 µM): 0.173
relative viability (SK-LU-1; first compound 0.05 µM): 0.162
relative viability (SK-LU-1; first compound 0.1581 µM): 0.19
relative viability (SK-LU-1; first compound 0.5 µM): 0.208
relative viability (HCC-827; first compound 0.005 µM): 0.288
relative viability (HCC-827; first compound 0.01581 µM): 0.36
relative viability (HCC-827; first compound 0.05 µM): 0.317
relative viability (HCC-827; first compound 0.1581 µM): 0.338
relative viability (HCC-827; first compound 0.5 µM): 0.231
relative viability (NCI-H1993; first compound 0.005 µM): 0.609
relative viability (NCI-H1993; first compound 0.01581 µM): 0.605
relative viability (NCI-H1993; first compound 0.05 µM): 0.692
relative viability (NCI-H1993; first compound 0.1581 µM): 0.496
relative viability (NCI-H1993; first compound 0.5 µM): 0.504
relative viability (NCI-H1437; first compound 0.005 µM): 0.292
relative viability (NCI-H1437; first compound 0.01581 µM): 0.449
relative viability (NCI-H1437; first compound 0.05 µM): 0.38
relative viability (NCI-H1437; first compound 0.1581 µM): 0.284
relative viability (NCI-H1437; first compound 0.5 µM): 0.276
relative viability (HARA; first compound 0.005 µM): 0.242
relative viability (HARA; first compound 0.01581 µM): 0.269
relative viability (HARA; first compound 0.05 µM): 0.286
relative viability (HARA; first compound 0.1581 µM): 0.19
relative viability (HARA; first compound 0.5 µM): 0.251
relative viability (NCI-H1734; first compound 0.005 µM): 0.424
relative viability (NCI-H1734; first compound 0.01581 µM): 0.536
relative viability (NCI-H1734; first compound 0.05 µM): 0.51
relative viability (NCI-H1734; first compound 0.1581 µM): 0.366
relative viability (NCI-H1734; first compound 0.5 µM): 0.425
relative viability (EKVX; first compound 0.005 µM): 0.571
relative viability (EKVX; first compound 0.01581 µM): 0.605
relative viability (EKVX; first compound 0.05 µM): 0.483
relative viability (EKVX; first compound 0.5 µM): 0.474
relative viability (BEN; first compound 0.005 µM): 0.254
relative viability (BEN; first compound 0.01581 µM): 0.342
relative viability (BEN; first compound 0.05 µM): 0.369
relative viability (BEN; first compound 0.1581 µM): 0.225
relative viability (BEN; first compound 0.5 µM): 0.25
relative viability (NCI-H647; first compound 0.005 µM): 0.152
relative viability (NCI-H647; first compound 0.01581 µM): 0.227
relative viability (NCI-H647; first compound 0.05 µM): 0.189
relative viability (NCI-H647; first compound 0.1581 µM): 0.193
relative viability (NCI-H647; first compound 0.5 µM): 0.15
relative viability (NCI-H661; first compound 0.005 µM): 0.851
relative viability (NCI-H661; first compound 0.01581 µM): 0.909
relative viability (NCI-H661; first compound 0.05 µM): 0.95
relative viability (NCI-H661; first compound 0.1581 µM): 0.834
relative viability (NCI-H661; first compound 0.5 µM): 0.796
relative viability (SK-MES-1; first compound 0.005 µM): 0.288
relative viability (SK-MES-1; first compound 0.01581 µM): 0.404
relative viability (SK-MES-1; first compound 0.05 µM): 0.442
relative viability (SK-MES-1; first compound 0.1581 µM): 0.332
relative viability (SK-MES-1; first compound 0.5 µM): 0.416
relative viability (NCI-H522; first compound 0.005 µM): 0.731
relative viability (NCI-H522; first compound 0.01581 µM): 0.9
relative viability (NCI-H522; first compound 0.05 µM): 0.836
relative viability (NCI-H522; first compound 0.1581 µM): 0.845
relative viability (NCI-H522; first compound 0.5 µM): 0.74
relative viability (NCI-H2170; first compound 0.005 µM): 0.599
relative viability (NCI-H2170; first compound 0.01581 µM): 0.494
relative viability (NCI-H2170; first compound 0.05 µM): 0.616
relative viability (NCI-H2170; first compound 0.1581 µM): 0.348
relative viability (NCI-H2170; first compound 0.5 µM): 0.569
relative viability (NCI-H1355; first compound 0.005 µM): 0.672
relative viability (NCI-H1355; first compound 0.01581 µM): 0.689
relative viability (NCI-H1355; first compound 0.05 µM): 0.787
relative viability (NCI-H1355; first compound 0.1581 µM): 0.413
relative viability (NCI-H1355; first compound 0.5 µM): 0.691
relative viability (NCI-H1395; first compound 0.005 µM): 0.376
relative viability (NCI-H1395; first compound 0.01581 µM): 0.407
relative viability (NCI-H1395; first compound 0.05 µM): 0.404
relative viability (NCI-H1395; first compound 0.1581 µM): 0.386
relative viability (NCI-H1395; first compound 0.5 µM): 0.371
relative viability (NCI-H2342; first compound 0.005 µM): 0.301
relative viability (NCI-H2342; first compound 0.01581 µM): 0.333
relative viability (NCI-H2342; first compound 0.05 µM): 0.326
relative viability (NCI-H2342; first compound 0.5 µM): 0.33
relative viability (NCI-H1792; first compound 0.005 µM): 0.77
relative viability (NCI-H1792; first compound 0.01581 µM): 0.819
relative viability (NCI-H1792; first compound 0.05 µM): 0.815
relative viability (NCI-H1792; first compound 0.1581 µM): 0.843
relative viability (NCI-H1792; first compound 0.5 µM): 0.848
relative viability (NCI-H2405; first compound 0.005 µM): 0.216
relative viability (NCI-H2405; first compound 0.01581 µM): 0.242
relative viability (NCI-H2405; first compound 0.05 µM): 0.202
relative viability (NCI-H2405; first compound 0.1581 µM): 0.266
relative viability (NCI-H2405; first compound 0.5 µM): 0.19
relative viability (NCI-H2009; first compound 0.005 µM): 0.31
relative viability (NCI-H2009; first compound 0.01581 µM): 0.299
relative viability (NCI-H2009; first compound 0.05 µM): 0.333
relative viability (NCI-H2009; first compound 0.1581 µM): 0.262
relative viability (NCI-H2009; first compound 0.5 µM): 0.22
